According to patent publication US6737383B1, “Herbicidal oxadiazolidines” (priority 1999, dated 2004):

Columns and labels:
[1] = test system: giant foxtail; assay: Test B pre/postemergence giant foxtail; type: in vivo, Setaria faberii
In short: (§1)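 Response is a visual 0-to-10 score relative to untreated plants, where 0 means no effect and 10 means complete control, taken twelve to sixteen days after application. Treatments went onto soil at planting and onto foliage of 1- to 4-leaf plants, using a surfactant-containing non-phytotoxic solvent.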

[2] = test system: morningglory; assay: Test B pre/postemergence morningglory; type: in vivo, Ipomoea hederacea
In short: as §1

[3] = test system: pitted morningglory; assay: Test D pitted morningglory; type: in vivo, Ipomoea lacunosa; details: Preemergence, 0 to 100 scale
In short: (§2)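 Herbicide screen in the greenhouse. A non-phytotoxic solvent mixture with surfactant carried the test chemical; in pre-emergence tests it went onto the soil of pots seeded no more than a day earlier. Injury was scored by eye 14 to 21 days after application, 0 to 100.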

[4] = test system: large crabgrass; assay: Test D large crabgrass; type: in vivo, Digitaria sanguinalis; details: Preemergence, 0 to 100 scale
In short: as §2

[5] = test system: common ragweed; assay: Test D common ragweed; type: in vivo, Ambrosia elatior; details: Preemergence, 0 to 100 scale
In short: as §2

[6] = test system: guineagrass; assay: Test D guineagrass; type: in vivo, Panicum maximum; details: Preemergence, 0 to 100 scale
In short: as §2

[7] = test system: pigweed; assay: Test B pre/postemergence pigweed; type: in vivo, Amaranthus retroflexus
In short: as §1

[8] = test system: winter wheat; assay: Test E winter wheat; type: in vivo, Triticum aestivum; details: Preemergence
[9] = test system: Italian ryegrass; assay: Test E Italian ryegrass; type: in vivo, Lolium multiflorum; details: Preemergence
[10] = test system: green foxtail; assay: Test E green foxtail; type: in vivo, Setaria viridis; details: Preemergence
[11] = test system: wild oat; assay: Test E wild oat; type: in vivo, Avena fatua; details: Preemergence
[12] = test system: winter barley; assay: Test E winter barley; type: in vivo, Hordeum vulgare; details: Preemergence
[13] = test system: winter wheat; assay: Test E winter wheat; type: in vivo, Triticum aestivum; details: Postemergence
In short: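 Each compound, carried in a non-phytotoxic solvent blend including surfactant, was applied (postemergence: over the top of young plants at 1- to 4-leaf stage). Plants stayed in the greenhouse about 21 to 28 days before visual comparison with untreated controls.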

[14] = test system: blackgrass; assay: Test E blackgrass; type: in vivo, Alopecurus myosuroides; details: Preemergence
[15] = Postemergence, Rate 62 g/ha, scale 0 to 10, 0 is no effect, 10 is complete control
[16] = Postemergence, Rate 250 g/ha, scale 0 to 10, 0 no effect, 10 complete control
[17] = Preemergence, Rate 31 g/ha, visual rating, scale 0 to 10 (0 no effect, 10 complete control)
[18] = Preemergence, Rate 62 g/ha, scale 0 to 10, 0 is no effect, 10 is complete control
[19] = Preemergence, Rate 125 g/ha, scale 0 to 10 (0 no effect, 10 complete control)
[20] = Preemergence, Rate 250 g/ha, scale of 0 to 10 where 0 is no effect and 10 is complete control
[21] = Rate 31 g/ha, Postemergence, scale 0 to 10
[22] = Rate 125 g/ha, Postemergence, scale 0 to 10, 0 no effect, 10 complete control
[23] = Rate 32 g/ha, 0 no injury, 100 complete control
[24] = Rate 64 g/ha, 0 no injury, 100 complete control
[25] = Rate 125 g/ha, 0 no injury, 100 complete control
[26] = Postemergence, Rate 125 g/ha, scale of 0 to 10 where 0 is no effect and 10 is complete control
[27] = Preemergence, Rate 62 g/ha, scale 0 to 10 (0 no effect, 10 complete control)
[28] = Preemergence, Rate 125 g/ha, 0 is no effect, 10 is complete control
[29] = Preemergence, Rate 250 g/ha, scale 0 to 10, 0 is no effect, 10 is complete control
[30] = Preemergence, Rate 500 g/ha, scale 0 to 10 (0 no effect, 10 complete control)
[31] = Rate 62 g/ha, Postemergence, scale of 0 to 10 where 0 is no effect and 10 is complete control
[32] = Rate 250 g/ha, Postemergence, scale 0 to 10, 0 is no effect, 10 is complete control
[33] = Rate 500 g/ha, Postemergence, scale 0 to 10
[34] = Rate 62 g/ha, 0 to 100 scale, 0 no effect, 100 complete control
[35] = Rate 125 g/ha, 0 to 100 scale (0 no effect, 100 complete control)
[36] = Rate 500 g/ha, 0 to 100 scale where 0 is no effect and 100 is complete control
[37] = Rate 500 g/ha, Postemergence, scale 0 to 10, 0 no effect, 10 complete control

## Cc1cccc(C)c1-n1c(=O)on(C(=O)N(c2ccc(F)cc2F)C(C)C)c1=O [Compound 28]
[1]; [15]
  Giant foxtail plant response rating: 1
[1]; [16]
  Giant foxtail plant response rating: 4
[1]; [17]
  Giant foxtail plant response rating: 0
[1]; [18]
  Plant response rating, Giant foxtail: 2
[1]; [19]
  Plant response rating, Giant foxtail: 5
[1]; [20]
  Plant response rating, Giant foxtail: 7
[1]; [21]
  Giant foxtail plant response rating: 1
[1]; [22]
  Giant foxtail plant response rating: 2
[2]; [15]
  Morningglory plant response rating: 2
[2]; [16]
  Morningglory plant response rating: 2
[2]; [17]
  Morningglory plant response rating: 0
[2]; [18]
  Plant response rating, Morningglory: 0
[2]; [19]
  Plant response rating, Morningglory: 0
[2]; [20]
  Plant response rating, Morningglory: 0
[2]; [21]
  Morningglory plant response rating: 0
[2]; [22]
  Morningglory plant response rating: 2
[3]; [23]
  Plant response rating, P. morninglory: 0
[3]; [24]
  Plant response rating, P. morninglory: 0
[3]; [25]
  Plant response rating, P. morninglory: 0
[3]; Rate 250 g/ha
  Plant response rating, P. morninglory: 0
[4]; [23]
  Plant response rating Large crabgrass: 85
[4]; [24]
  Plant response rating Large crabgrass: 98
[4]; [25]
  Plant response rating Large crabgrass: 100
[4]; Rate 250 g/ha
  Plant response rating Large crabgrass: 100
[5]; [23]
  Plant response rating, C. ragweed: 0
[5]; [24]
  Plant response rating, C. ragweed: 0
[5]; [25]
  Plant response rating, C. ragweed: 0
[5]; Rate 250 g/ha
  Plant response rating, C. ragweed: 0
[6]; [23]
  Plant response rating, Guineagrass: 40
[6]; [24]
  Plant response rating, Guineagrass: 65
[6]; [25]
  Plant response rating, Guineagrass: 75
[6]; Rate 250 g/ha
  Plant response rating, Guineagrass: 98
[7]; [15]
  Redroot pigweed plant response rating: 0
[7]; [16]
  Redroot pigweed plant response rating: 2
[7]; [17]
  Redroot pigweed plant response rating: 0
[7]; [18]
  Plant response rating, Redroot pigweed: 0
[7]; [19]
  Plant response rating, Redroot pigweed: 0
[7]; [20]
  Plant response rating, Redroot pigweed: 1
[7]; [21]
  Redroot pigweed plant response rating: 0
[7]; [22]
  Redroot pigweed plant response rating: 1

## C=C(C)Cn1c(=O)on(C(=O)N(c2ccc(F)cc2)C(C)C)c1=O [Compound 139]
[1]; [26]
  Giant foxtail plant response rating: 8
[1]; [27]
  Giant foxtail plant response rating: 10
[1]; [28]
  Giant foxtail plant response rating (0 to 10 scale): 10
[1]; [29]
  Giant foxtail plant response rating: 10
[1]; [30]
  Giant foxtail plant response rating: 10
[1]; [31]
  Giant foxtail plant response rating: 6
[1]; [32]
  Plant response rating, Giant foxtail: 9
[1]; [33]
  Giant foxtail plant response rating: 9
[2]; [26]
  Morningglory plant response rating: 5
[2]; [27]
  Morningglory plant response rating: 0
[2]; [28]
  Morningglory plant response rating (0 to 10 scale): 0
[2]; [29]
  Morningglory plant response rating: 0
[2]; [30]
  Morningglory plant response rating: 0
[2]; [31]
  Morningglory plant response rating: 3
[2]; [32]
  Plant response rating, Morningglory: 6
[2]; [33]
  Morningglory plant response rating: 9
[3]; [24]
  Plant response rating, P. morninglory: 30
[4]; [24]
  Plant response rating Large crabgrass: 90
[5]; [24]
  Plant response rating, C. ragweed: 0
[6]; [24]
  Plant response rating, Guineagrass: 65
[7]; [26]
  Redroot pigweed plant response rating: 3
[7]; [27]
  Redroot pigweed plant response rating: 6
[7]; [28]
  Redroot pigweed plant response rating (0 to 10 scale): 8
[7]; [29]
  Redroot pigweed plant response rating: 10
[7]; [30]
  Redroot pigweed plant response rating: 10
[7]; [31]
  Redroot pigweed plant response rating: 3
[7]; [32]
  Plant response rating, Redroot pigweed: 4
[7]; [33]
  Redroot pigweed plant response rating: 4

## CCn1c(=O)on(C(=O)N(c2ccc(F)cc2F)C(C)C)c1=O [Compound 116]
[8]; [34]
  Plant response rating, Wheat (winter): 30
[8]; [35]
  Plant response rating, Wheat (winter): 55
[8]; Rate 250 g/ha, 0 to 100 scale
  Plant response rating, Wheat (winter): 30
[8]; [36]
  Plant response rating, Wheat (winter): 100
[1]; [26]
  Giant foxtail plant response rating: 9
[1]; [16]
  Giant foxtail plant response rating: 9
[1]; [27]
  Giant foxtail plant response rating: 10
[1]; [19]
  Plant response rating, Giant foxtail: 10
[1]; [20]
  Plant response rating, Giant foxtail: 10
[1]; [30]
  Giant foxtail plant response rating: 10
[1]; [31]
  Giant foxtail plant response rating: 9
[1]; [37]
  Giant foxtail plant response rating: 9
[2]; [26]
  Morningglory plant response rating: 4
[2]; [16]
  Morningglory plant response rating: 4
[2]; [27]
  Morningglory plant response rating: 0
[2]; [19]
  Plant response rating, Morningglory: 0
[2]; [20]
  Plant response rating, Morningglory: 4
[2]; [30]
  Morningglory plant response rating: 8
[2]; [31]
  Morningglory plant response rating: 2
[2]; [37]
  Morningglory plant response rating: 7
[9]; [34]
  Plant response rating, I. Ryegrass: 50
[9]; [35]
  Plant response rating, I. Ryegrass: 30
[9]; Rate 250 g/ha, 0 to 100 scale
  Plant response rating, I. Ryegrass: 60
[9]; [36]
  Plant response rating, I. Ryegrass: 100
[10]; [34]
  Plant response rating, Green foxtail: 65
[10]; [35]
  Plant response rating, Green foxtail: 50
[10]; Rate 250 g/ha, 0 to 100 scale
  Plant response rating, Green foxtail: 100
[11]; [34]
  Plant response rating, Wild oat: 20
[11]; [35]
  Plant response rating, Wild oat: 30
[11]; [36]
  Plant response rating, Wild oat: 80
[12]; [34]
  Plant response rating, Barley (winter): 10
[12]; [35]
  Plant response rating, Barley (winter): 30
[12]; Rate 250 g/ha, 0 to 100 scale
  Plant response rating, Barley (winter): 70
[12]; [36]
  Plant response rating, Barley (winter): 80
[13]; Rate 62 g/ha, 0 to 100 scale
  Plant response rating, Wheat (winter): 20
[13]; Rate 125 g/ha, 0 to 100 scale
  Plant response rating, Wheat (winter): 10
[13]; Rate 250 g/ha, 0 to 100 scale (0 no effect, 100 complete control)
  Plant response rating, Wheat (winter): 45
[13]; Rate 500 g/ha, 0 to 100 scale, 0 no effect, 100 complete control
  Plant response rating, Wheat (winter): 10
[14]; [34]
  Plant response rating, Blackgrass: 40
[14]; [35]
  Plant response rating, Blackgrass: 50
[14]; Rate 250 g/ha, 0 to 100 scale
  Plant response rating, Blackgrass: 45
[14]; [36]
  Plant response rating, Blackgrass: 100
[7]; [26]
  Redroot pigweed plant response rating: 0
[7]; [27]
  Redroot pigweed plant response rating: 10
[7]; [19]
  Plant response rating, Redroot pigweed: 10
[7]; [20]
  Plant response rating, Redroot pigweed: 10
[7]; [30]
  Redroot pigweed plant response rating: 10
[7]; [31]
  Redroot pigweed plant response rating: 0
[7]; [32]
  Plant response rating, Redroot pigweed: 8
[7]; [37]
  Redroot pigweed plant response rating: 8
